Patent US12054560B2, “Bifunctional molecules recruiting antibodies and targeting cancer cells” (JIANGNAN UNIVERSITY, priority 2017, dated 2024)
Square brackets hold non-standard residues; d marks the D form. Primed or numbered codes have the meaning given here. Side chains are listed from the residue outwards. oligo‑glycol (n:2) = oligo-glycol tether (n=2) linking D-Lys(N3) to alkynyl rhamnose by click reaction; oligo‑glycol (n:5) = oligo-glycol tether (n=5) linking D-Lys(N3) to alkynyl rhamnose by click reaction; dLys(N3)′ = its azide, alkyne or alkene has reacted where a group follows in round brackets; rhamnose derivative = not defined here; click linkage = not defined here; pGlu = O=C1CC[C@@H](C(=O)O)N1

How the values were obtained:
[1] = test system: MCF7 cells (LHRH-R positive); experiment: Flow cytometry, recruitment of anti-Rha antibody on MCF7 cells; format: cell-based; conditions: 250 nM, anti-Rha antibody 20 μg/mL, FIG. 7
Experimental: (§1) Commercialized MCF7 cells (LHRH-R positive) and UCI-107(LHRH-R negative) were grown in DMEM supplemented with 10% FBS, 1% penicillin-streptomycin. All cells were cultured at 37° C. in a 5% CO2 humidified atmosphere.
(1) Cells were cultured and detached with trypsin-EDTA and then resuspended to 1.0×10^5 cells/mL. Forty thousand of these cells were added into sterile centrifuge tubes. (2) LHRH, LHRH-Rha, LHRH-TEG-Rha and LHRH-HEG-Rha compounds were added at a final concentration of 250 nM. For the blank group (Negative), the corresponding volume of PBS was added. And anti-Rha antibody at a final concentration of 20 μg/mL in all groups. These cells were incubated on ice for 60 min, washed with flow cytometry buffer. And fluorescent secondary antibody was immediately added in all groups. These cells were incubated on ice for 30 min, (3) washed with flow cytometry buffer and then analyzed using an Accuri C6 flow cytometer.

[2] = test system: MCF7 cells (LHRH-R positive); experiment: CDC experiment on MCF7 cells; format: cell-based; conditions: MCF-7 cells, 250 nM, anti-Rha antibody, 10% rabbit complement, cck8 kit, FIG. 7
Experimental: as §1
(1) MCF7 cells or UCI-107 were seeded in 96-well plates at a concentration of 5000 cells/well and then treated with LHRH, LHRH-Rha, LHRH-TEG-Rha and LHRH-HEG-Rha at a final concentration of 250 nM and a certain concentration of anti-Rha antibody. Following the incubation at 37° C. for 2 h, next, diluted rabbit complement at a final concentration of 10% were added to each well. Following the incubation at 37° C. for 1 h, the results detected using cck8 kit.

[3] = test system: MCF7 cells (LHRH-R positive); experiment: ADCC experiment on MCF7 cells; format: cell-based; conditions: MCF-7 cells, 250 nM, anti-Rha antibody, PBMC, LDH method, FIG. 7
Experimental: as §1
(1) MCF7 or UCI-107 cells were seeded in 96-well plates at a concentration of 10,000 cells/well and then treated with LHRH, LHRH-Rha, LHRH-TEG-Rha and LHRH-HEG-Rha at a final concentration of 250 nM and a certain concentration of anti-Rha antibody. (2) Following the incubation period, freshly extracted PBMC cells were added at a certain effective target ratio, (3) and the supernatant was treated by centrifugation for minutes, using LDH method to measure the cytotoxicity.

[4] = test system: HEK-293 (high expression of integrin αvβ3); experiment: Flow cytometry on HEK-293 cells; format: cell-based; conditions: FIG. 11
Experimental: (§2) Cell assay implementation: cell culture: commercial cells HEK-293 (high expression of integrin αvβ3), SKOV-3 (high expression of integrin αvβ3, αvβ 5), and HT-29 (high expression of integrin αvβ5) was cultured in DMEM complete medium. All cell culture conditions were 37° C., 5% CO2. Flow cytometry assay: (1) The cells were digested with trypsin, resuspended in flow medium diluted to 1×10^5 cells. 400 μL of cells (40,000 cells) were added to a sterile EP tube. (2) RGD analogues (SEQ ID NO:9), RGD-DNP and RGD-linker-DNP compounds were added […], incubate on ice for 1 h. Then the cells were washed and incubated with fluorescent secondary antibody for 0.5 h. (3) the cells were thoroughly washed gently with a flow buffer, resuspended, and analyzed by instruments.

[5] = test system: HT-29 (high expression of integrin αvβ5); experiment: Flow cytometry on HT-29 cells; format: cell-based; conditions: FIG. 11
Experimental: as §2

[6] = test system: HEK-293 cells; experiment: CDC assay on HEK-293 cells; format: cell-based; conditions: 250 nM, anti-DNP antibody, 10% complement, cck8 method, FIG. 11
Experimental: CDC assay implementation: (1) HEK-293, SKOV-3, HT-29 cells were seeded in 96-well plates at a concentration of 5,000 cells/well. After the cells were fully attached, added with RGD analogues (SEQ ID NO:9), RGD-DNP and RGD-linker-DNP compounds at a final concentration of 250 nM and added a certain concentration of anti-DNP antibody at the same time. After 2 hours of incubation at 37° C., a final concentration of 10% of the complement solution was added and incubated for 1 hour at 37° C. After the incubation, the cell viability was measured by the cck8 method.

[7] = test system: SKOV-3 (high expression of integrin αvβ3, αvβ 5); experiment: Flow cytometry on SKOV-3 cells; format: cell-based; conditions: FIG. 11
Experimental: as §2

[8] = test system: HEK-293 cells; experiment: ADCC assay on HEK-293 cells; format: cell-based; conditions: 250 nM, anti-DNP antibody, PBMC, LDH method, FIG. 11
Experimental: ADCC assay implementation: (1) HEK-293, SKOV-3, HT-29 cells were seeded in 96-well plates at a concentration of 10,000 cells/well. After the cells were fully attached, added with RGD analogues (SEQ ID NO:9), RGD-DNP and RGD-linker-DNP compounds at a final concentration of 250 nM and immediately added a certain concentration of anti-DNP antibody. (2) After incubation for a period of time, freshly extracted PBMC cells were added at a certain effect target ratio for a certain period of time. (3) The supernatant was removed by centrifugation, and cytotoxicity was measured by the LDH method.

[9] = target: T1, HER2 (UniProt P04626 23-1255, limits assumed); experiment: flow cytometry on SKBR3 cells at 250 nM, detected with Alexa 488 rabbit anti-Rha IgG
T1 construct: whole, on cells; also called human epidermal growth factor receptor 2; HER2 (on SKBR3 cells)

[10] = target: T2, LHRH-R (UniProt P30968 1-328); experiment: cell-based or functional assay
T2 sequence (looked up): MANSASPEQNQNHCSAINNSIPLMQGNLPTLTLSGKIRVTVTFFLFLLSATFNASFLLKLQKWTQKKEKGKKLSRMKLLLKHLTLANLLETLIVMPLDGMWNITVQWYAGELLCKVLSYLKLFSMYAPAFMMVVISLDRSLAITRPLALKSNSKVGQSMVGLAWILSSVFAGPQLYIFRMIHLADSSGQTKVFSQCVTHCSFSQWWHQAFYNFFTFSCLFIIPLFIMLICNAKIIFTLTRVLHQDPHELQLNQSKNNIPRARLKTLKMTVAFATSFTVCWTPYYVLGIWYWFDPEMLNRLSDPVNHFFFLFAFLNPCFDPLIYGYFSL

[11] = test system: SKBR3 cells; experiment: ADCC assay on SKBR3 cells; format: cell-based; conditions: rabbit anti-Rha IgG, human peripheral blood mononuclear cells, LDH kit, FIG. 6(A)
Experimental: (§3) SKBR3 (HER2 positive) and MCF7 cells (HER2 negative) were grown in DMEM supplemented with 10% FBS, 1% penicillin-streptomycin. All cells were cultured at 37° C. in a 5% CO2 humidified atmosphere.
(1) SKBR3 cells were seeded in 96-well plates at a concentration of 10,000 cells/well and then treated with C7b and Rha conjugated C7b in the presence of rabbit anti-Rha IgG antibodies. (2) Next, freshly isolated human peripheral blood mononuclear cells were added to each well. (3) Following the incubation period, the supernatant was transferred onto a new black 96-well and detected using LDH kit.

[12] = test system: SKBR3 cells; experiment: CDC assay on SKBR3 cells; format: cell-based; conditions: 20% normal human serum, cck8 kit, FIG. 6(B)
Experimental: as §3
(1) SKBR3 cells were seeded in 96-well plates at a concentration of 5000 cells/well and (2) then treated with C7b and Rhaconjugated C7b in the presence of 20% normal human serum (the source of anti-Rha IgG and complement). (3) Following the incubation period, the results detected using cck8 kit.

Question: “LHRH-Rha: [6-D-Lys(N3)]-LHRH peptide click-coupled to rhamnose derivative, oligo-glycol linker n=0 ([pGlu]HWSYKLRPG-NH2; not fully specified (residue 6); printed as Glp-His-Trp-Ser-Tyr-D-Lys(N3)-Leu-Arg-Pro-Gly-NH2; also: rhamnose derivative attached via click (triazole) to D-Lys6, oligo-glycol n=0, structure in drawing)” was tested. Which “recruitment of anti-Rha antibodies to MCF-7 tumor cells” value [1] did it give?
Answer: could recruit anti-Rha antibodies

Question: And the CDC-mediated killing rate [2]?
Answer: about 26%

Question: And the ADCC-mediated killing rate [3]?
Answer: about 33%

Question: Which binding to cells [4] does the source give for “RGD-DNP: DNP coupled to cyclic RGD analogue Cyclo-(DFKRG), short connecting arm (cyclo(DFKRG); also: DNP conjugated (site only in drawing))” here?
Answer: can bind

Question: And the binding to cells [5]?
Answer: can bind

Question: And the CDC kill rate [6]?
Answer: 21%

Question: What about the binding to cells [7] of the same molecule?
Answer: can bind

Question: And the ADCC kill rate [8]?
Answer: 18%

Question: Which results are given for “RGD-linker-DNP: DNP coupled through a linker to cyclic RGD analogue Cyclo-(DFKRG), long connecting arm (cyclo(DFKRG); also: DNP conjugated via long linker (site only in drawing))”?
Answer: binding to cells [4]: can bind; binding to cells [5]: can bind; CDC kill rate [6]: 42%; binding to cells [7]: can bind; ADCC kill rate [8]: 38%

Question: What does the source list for “LHRH-HEG-Rha: [6-D-Lys(N3)]-LHRH peptide click-coupled to rhamnose derivative, oligo-glycol linker n=5 ([pGlu]HWSY[dLys(N3)′]([click linkage-oligo‑glycol n:5-rhamnose derivative])LRPG-NH2; reading uncertain; also: rhamnose derivative attached via click (triazole) to D-Lys6, oligo-glycol n=5, structure in drawing)”?
Answer: recruitment of anti-Rha antibodies to MCF-7 tumor cells [1]: could recruit anti-Rha antibodies; CDC-mediated killing rate [2]: about 26%; ADCC-mediated killing rate [3]: about 33%

Question: Which “recruitment of anti-Rha antibodies to MCF-7 tumor cells” value [1] does the source give for “LHRH-TEG-Rha: [6-D-Lys(N3)]-LHRH peptide click-coupled to rhamnose derivative, oligo-glycol linker n=2 ([pGlu]HWSY[dLys(N3)′]([click linkage-oligo‑glycol n:2-rhamnose derivative])LRPG-NH2; reading uncertain; also: rhamnose derivative attached via click (triazole) to D-Lys6, oligo-glycol n=2, structure in drawing)” here?
Answer: could recruit anti-Rha antibodies

Question: And the CDC-mediated killing rate [2]?
Answer: about 26%

Question: And the ADCC-mediated killing rate [3]?
Answer: about 33%

B1: C7b-triEGRha (VHH)
VHH: QVQLVQSGGGLVQAGGSLRLSCAASGRTFSSYAMAWFRQAPGKEREFVAAISWSGANIYVADSVKGRFTISRDNAKDTVYLQMNSLKPEDTAVYYCAVKLGFAPVEERQYDYWGQGTQVTVSS
modifications: C-terminal LPETGG motif ligated by sortase A (enhanced SrtA) to GGG-triEGRha (triethylene glycol-rhamnose)
notes: also called Rha conjugated C7b
Question: Does B1 bind [9]?
Answer: binds

B2: C7b-hexEGRha (VHH)
VHH: B1 VHH
modifications: C-terminal LPETGG motif ligated by sortase A (enhanced SrtA) to GGG-hexEGRha (hexaethylene glycol-rhamnose)
notes: as for B1
Question: Does B2 bind [9]?
Answer: binds

Question: Which results are given for [pGlu]HWSY[dLys(N3)′]([oligo‑glycol (n:2)-rhamnose])LRPG-NH2 [LHRH-TEG-Rha]?
Answer: ADCC-mediated killing rate [10]: ~33%; CDC-mediated killing rate [10]: ~26%

B3: C7b-triEGRha: nanobody C7b linked by SrtA to small molecule GGG-triEGRha (conjugate)
VHH: MQVQLVQSGGGLVQAGGSLRLSCAASGRTFSSYAMAWFRQAPGKEREFVAAISWSGANIYVADSVKGRFTISRDNAKDTVYLQMNSLKPEDTAVYYCAVKLGFAPVEERQYDYWGQGTQVTVSSLPETGG
Question: What does the source list for B3?
Answer: ADCC efficacy [11]: 32%; CDC efficacy [12]: 36%

B4: C7b-hexEGRha: nanobody C7b linked by SrtA to small molecule GGG-hexEGRha (conjugate)
VHH: B3 VHH
Question: For B4, which ADCC efficacy [11] is on record?
Answer: 43%

Question: And the CDC efficacy [12]?
Answer: 47%

Question: What does the source list for [pGlu]HWSY[dLys(N3)′](rhamnose)LRPG-NH2 [LHRH-Rha]?
Answer: ADCC-mediated killing rate [10]: ~33%; CDC-mediated killing rate [10]: ~26%

Question: With [pGlu]HWSY[dLys(N3)′]([oligo‑glycol (n:5)-rhamnose])LRPG-NH2 [LHRH-HEG-Rha] as the molecule, how does the ADCC-mediated killing rate [10] read?
Answer: ~33%

Question: What about the CDC-mediated killing rate [10] of the same molecule?
Answer: ~26%
